≈ marks a conversion by molar mass, not a printed value.
What was measured:
[1] = test system: NB4 (acute promyelocytic leukemia, AML); assay: MTT growth inhibition of leukemia cells, 72 h; type: cell-based, human; details: Homo sapiens, NB4, 72 h; for IC50: read-out: IC50; for IC90: read-out: IC90
Text: (§1) Leukemia cell lines: leukemia cell lines: K562/adr (drug-resistant, chronic myeloid leukemia, CML), NB4 (acute promyelocytic leukemia, AML), Kasumi-1 (acute myeloid leukemia M2 type, AML-M2), and Jurkat (acute lymphoblastic leukemia, ALL), all of which are donated by Cancer Research Institute of Zhejiang University, China; and H9 (acute lymphoblastic leukemia, ALL), which is purchased from China Center for Type Culture Collection (CCTCC).
(§2) The standard sample of tanshinone I (TA) and the 2-aminated methylene or 2-esterified methylene tanshinone I derivatives of the present invention are sufficiently dissolved with dimethylsulfoxide to produce a stock solution of 10 mg/mL, which is refrigerated at 4° C. and stored in dark, and is diluted with a cell culture medium to the desired concentration prior to experimentation.
(§3) Obtaining 6000 well-growing leukemia cells and inoculating them into wells of a 96-well cell culture plate. The culture medium is the RPMI-1640 cell culture medium containing 10% fetal bovine serum. After adding on the second day the 2-aminated methylene or 2-esterified methylene tanshinone I derivatives of different concentrations and mixing uniformly, placing the plate in a carbon dioxide cell incubator (5% CO2) at 37° C. and incubated for 72 hours. Then the viable cell concentration is determined by MTT method.

[2] = test system: H9 (acute lymphoblastic leukemia, ALL); assay: MTT growth inhibition of leukemia cells, 72 h; type: cell-based, human; details: Homo sapiens, H9, 72 h; for IC50: read-out: IC50; for IC90: read-out: IC90
Text: as §1, §2, §3

[3] = test system: Kasumi-1 (acute myeloid leukemia M2 type, AML-M2); assay: MTT growth inhibition of leukemia cells, 72 h; type: cell-based, human; details: Homo sapiens, Kasumi-1, 72 h; for IC50: read-out: IC50; for IC90: read-out: IC90
Text: as §1, §2, §3

[4] = test system: K562/adr (drug-resistant, chronic myeloid leukemia, CML); assay: MTT growth inhibition of leukemia cells, 72 h; type: cell-based, human; details: Homo sapiens, K562/Adr; for IC50: read-out: IC50; for IC90: read-out: IC90
Text: as §1, §2, §3

[5] = test system: Jurkat (acute lymphoblastic leukemia, ALL); assay: MTT growth inhibition of leukemia cells, 72 h; type: cell-based, human; details: Homo sapiens, 72 h; for IC50: read-out: IC50; for IC90: read-out: IC90
Text: as §1, §2, §3

[6] = test system: RPMI8226 (multiple myeloma); assay: MTT growth inhibition of multiple myeloma cells, 72 h; type: cell-based, human; details: Homo sapiens, RPMI 8226, 72 h; for IC50: read-out: IC50; for IC90: read-out: IC90
Method: Myeloma cell lines: RPMI8226 (multiple myeloma), purchased from Fuxiang Bio-tech Co. Ltd., Shanghai, China.
as §2
as §3, with “myeloma” for “leukemia”, “cells as above” for “cells”, “1640” for “RPMI-1640”, “adding” for “adding on the second day”

MG63 (osteosarcoma) = assay: MTT growth inhibition of human solid tumor cells, 72 h; type: cell-based; details: Homo sapiens, MG-63, 72 h; for IC50: read-out: IC50; for IC90: read-out: IC90
Method: (§4) Hep-2 (laryngeal carcinoma), A549 (human lung cancer), CaES-17 (esophageal cancer cell), PC-3 (prostate cancer), CNE (nasopharyngeal carcinoma cell), and SK-OV-3 (ovarian cancer cell), all of which are purchased from China Center For Type Culture Collection; RKO (human colon adenocarcinoma cell), MGC 803 (human gastric cancer cell), MG63 (osteosarcoma) and U87 MG (malignant glioma cell), all of which are purchased from Fuxiang Bio-tech Co. Ltd., Shanghai, China; PANC-1 (pancreatic cancer), Hep G2 (human liver cancer cell), Becap37 (human breast cancer cell) and Hela (human cervical cancer cell), all of which are donated by Cancer Research Institute of Zhejiang University, China.
as §2
(§5) Obtaining 4000 well-growing human solid tumor cells and inoculating them into wells of a 96-well cell culture plate. The culture medium is DMEM High Glucose cell culture medium containing 10% fetal bovine serum. The plate is placed in a carbon dioxide cell incubator (5% CO2) at 37° C. and incubated for 24 hours. After adding the 2-aminated methylene or 2-esterified methylene tanshinone I derivatives of different concentrations and mixing uniformly, the plate is placed in a carbon dioxide cell incubator (5% CO2) at 37° C. and incubated for 72 hours. Then the viable cell concentration is determined by the MTT method.

A549 (human lung cancer) = assay: as above; type: cell-based; details: Homo sapiens, A549, 72 h; for IC50: read-out: IC50; for IC90: read-out: IC90
Method: as §4, §2, §5

[7] = test system: Hep G2 (human liver cancer cell); assay: as above; type: cell-based; details: Homo sapiens, HepG2, Hep G2, 72 h; for IC50: read-out: IC50; for IC90: read-out: IC90
Method: as §4, §2, §5

[8] = test system: PANC-1 (pancreatic cancer); assay: as above; type: cell-based; details: Homo sapiens, PANC-1, 72 h; for IC50: read-out: IC50; for IC90: read-out: IC90
Method: as §4, §2, §5

[9] = test system: Hela (human cervical cancer cell); assay: as above; type: cell-based; details: Homo sapiens, HeLa, 72 h; for IC50: read-out: IC50; for IC90: read-out: IC90
Method: as §4, §2, §5

[10] = test system: CaES-17 (esophageal cancer cell); assay: as above; type: cell-based; details: Homo sapiens, CaEs17, CaEs-17, 72 h; for IC50: read-out: IC50; for IC90: read-out: IC90
Method: as §4, §2, §5

[11] = test system: MGC 803 (human gastric cancer cell); assay: as above; type: cell-based; details: Homo sapiens, MGC-803, 72 h; for IC50: read-out: IC50; for IC90: read-out: IC90
Method: as §4, §2, §5

[12] = test system: Becap37 (human breast cancer cell); assay: as above; type: cell-based; details: Homo sapiens, Becap-37, 72 h; for IC50: read-out: IC50; for IC90: read-out: IC90
Method: as §4, §2, §5

[13] = test system: U87 MG (malignant glioma cell); assay: as above; type: cell-based; details: Homo sapiens, U-87 MG, U87-MG, 72 h; for IC50: read-out: IC50; for IC90: read-out: IC90
Method: as §4, §2, §5

[14] = test system: Hep-2 (laryngeal carcinoma); assay: as above; type: cell-based; details: Homo sapiens, HEp-2, 72 h; for IC50: read-out: IC50; for IC90: read-out: IC90
Method: as §4, §2, §5

[15] = test system: RKO (human colon adenocarcinoma cell); assay: as above; type: cell-based; details: Homo sapiens; for IC50: read-out: IC50; for IC90: read-out: IC90
Method: as §4, §2, §5

[16] = test system: SK-OV-3 (ovarian cancer cell); assay: as above; type: cell-based; details: Homo sapiens, SK-OV-3, 72 h; for IC50: read-out: IC50; for IC90: read-out: IC90
Method: as §4, §2, §5

[17] = test system: CNE (nasopharyngeal carcinoma cell); assay: as above; type: cell-based; details: Homo sapiens; for IC50: read-out: IC50; for IC90: read-out: IC90
Method: as §4, §2, §5

PC-3 (prostate cancer) = assay: as above; type: cell-based; details: Homo sapiens, PC-3, 72 h; for IC50: read-out: IC50; for IC90: read-out: IC90
Method: as §4, §2, §5

Row | Compound | IC50 [1] | IC90 [1] | IC50 [2] | IC90 [2] | IC50 [3] | IC90 [3] | IC50 [4] | IC90 [4] | IC50 [5] | IC90 [5] | IC50 [6] | IC90 [6] | IC50 (MG63 (osteosarcoma)) | IC90 (MG63 (osteosarcoma)) | IC50 (A549 (human lung cancer)) | IC90 (A549 (human lung cancer)) | IC50 [7] | IC90 [7] | IC50 [8] | IC90 [8] | further results
1 | Cc1c(CNCC2CCCCC2)oc2c1C(=O)C(=O)c1c-2ccc2c(C)cccc12 [BS-TA-B06] | 2.13 µg/mL (≈ 5.31 µM) | 7.29 µg/mL (≈ 18.2 µM) | 3.2 µg/mL (≈ 7.97 µM) | 14.1 µg/mL (≈ 35.1 µM) | 0.57 µg/mL (≈ 1.42 µM) | 1.73 µg/mL (≈ 4.31 µM) | 0.81 µg/mL (≈ 2.02 µM) | 1.8 µg/mL (≈ 4.48 µM) | 5.25 µg/mL (≈ 13.1 µM) | 16 µg/mL (≈ 39.8 µM) | 6.16 µg/mL (≈ 15.3 µM) | 16 µg/mL (≈ 39.8 µM) | 4.76 µg/mL (≈ 11.9 µM) | > 16 µg/mL | 1.59 µg/mL (≈ 3.96 µM) | 10 µg/mL (≈ 24.9 µM) | 13.5 µg/mL (≈ 33.6 µM) | > 16 µg/mL | 1.57 µg/mL (≈ 3.91 µM) | 16.7 µg/mL (≈ 41.6 µM) | IC50 [9]: 7.49 µg/mL (≈ 18.7 µM); IC90 [9]: > 16 µg/mL; IC50 [10]: ≥ 19.3 µg/mL; IC90 [10]: > 16 µg/mL; IC50 [11]: 7.82 µg/mL (≈ 19.5 µM); IC90 [11]: > 16 µg/mL; IC50 [12]: 5.9 µg/mL (≈ 14.7 µM); IC90 [12]: > 16 µg/mL; IC50 [13]: 6.5 µg/mL (≈ 16.2 µM); IC90 [13]: > 16 µg/mL; IC50 [14]: 9.23 µg/mL (≈ 23 µM); IC90 [14]: > 16 µg/mL; IC50 [15]: 3.42 µg/mL (≈ 8.52 µM); IC90 [15]: > 16 µg/mL; IC50 [16]: > 16 µg/mL; IC90 [16]: > 16 µg/mL; IC50 [17]: 11.8 µg/mL (≈ 29.4 µM); IC90 [17]: > 16 µg/mL; IC50 (PC-3 (prostate cancer)): 10.3 µg/mL (≈ 25.8 µM); IC90 (PC-3 (prostate cancer)): 24.5 µg/mL (≈ 60.9 µM)
2 | CC(=O)OCCN(C)Cc1oc2c(c1C)C(=O)C(=O)c1c-2ccc2c(C)cccc12 [BS-TA-61] | 0.73 µg/mL (≈ 1.8 µM) | 1.9 µg/mL (≈ 4.69 µM) | 0.57 µg/mL (≈ 1.41 µM) | 0.9 µg/mL (≈ 2.22 µM) | 0.31 µg/mL (≈ 0.765 µM) | 1.28 µg/mL (≈ 3.16 µM) | 0.61 µg/mL (≈ 1.5 µM) | 1.61 µg/mL (≈ 3.97 µM) | 0.56 µg/mL (≈ 1.38 µM) | 0.99 µg/mL (≈ 2.44 µM) | 1.82 µg/mL (≈ 4.49 µM) | 3.92 µg/mL (≈ 9.67 µM) | 2.34 µg/mL (≈ 5.77 µM) | 6.79 µg/mL (≈ 16.7 µM) | 2.76 µg/mL (≈ 6.81 µM) | 6.41 µg/mL (≈ 15.8 µM) | 2.95 µg/mL (≈ 7.28 µM) | 9.75 µg/mL (≈ 24 µM) | 0.74 µg/mL (≈ 1.83 µM) | 4.95 µg/mL (≈ 12.2 µM) | IC50 [9]: 1.49 µg/mL (≈ 3.67 µM); IC90 [9]: 4 µg/mL (≈ 9.87 µM); IC50 [10]: 3 µg/mL (≈ 7.4 µM); IC90 [10]: 5.07 µg/mL (≈ 12.5 µM); IC50 [11]: 2.47 µg/mL (≈ 6.09 µM); IC90 [11]: 8.33 µg/mL (≈ 20.5 µM); IC50 [12]: 2.54 µg/mL (≈ 6.26 µM); IC90 [12]: 4.92 µg/mL (≈ 12.1 µM); IC50 [13]: 2.59 µg/mL (≈ 6.39 µM); IC90 [13]: 3.87 µg/mL (≈ 9.54 µM); IC50 [14]: 0.84 µg/mL (≈ 2.07 µM); IC90 [14]: 2.52 µg/mL (≈ 6.22 µM); IC50 [15]: 0.46 µg/mL (≈ 1.13 µM); IC90 [15]: 6.98 µg/mL (≈ 17.2 µM); IC50 [16]: 5.83 µg/mL (≈ 14.4 µM); IC90 [16]: 9.47 µg/mL (≈ 23.4 µM); IC50 [17]: 2.8 µg/mL (≈ 6.91 µM); IC90 [17]: 7.2 µg/mL (≈ 17.8 µM); IC50 (PC-3 (prostate cancer)): 2.65 µg/mL (≈ 6.54 µM); IC90 (PC-3 (prostate cancer)): 6.49 µg/mL (≈ 16 µM)
